Measured values: ChEMBL document CHEMBL1138101, “Heteroaryl substituted bis-trifluoromethyl carbinols as malonyl-CoA decarboxylase inhibitors” (Bioorg Med Chem Lett, 2006)

Target: T1, Malonyl-CoA decarboxylase, mitochondrial (Homo sapiens, UniProt O95822)
T1 sequence (O95822 whole entry): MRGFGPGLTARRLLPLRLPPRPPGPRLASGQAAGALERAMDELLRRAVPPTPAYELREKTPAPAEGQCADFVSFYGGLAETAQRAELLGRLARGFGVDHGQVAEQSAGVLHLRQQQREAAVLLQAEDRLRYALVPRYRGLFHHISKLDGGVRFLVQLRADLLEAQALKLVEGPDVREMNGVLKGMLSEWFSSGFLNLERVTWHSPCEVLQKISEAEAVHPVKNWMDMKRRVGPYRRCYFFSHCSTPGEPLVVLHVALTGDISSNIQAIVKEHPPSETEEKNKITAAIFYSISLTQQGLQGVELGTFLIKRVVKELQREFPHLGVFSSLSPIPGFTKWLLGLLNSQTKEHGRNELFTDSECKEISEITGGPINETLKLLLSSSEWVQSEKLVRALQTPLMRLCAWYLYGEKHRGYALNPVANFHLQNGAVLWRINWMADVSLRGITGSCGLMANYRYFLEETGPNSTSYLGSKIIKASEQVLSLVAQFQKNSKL

IC50: 1580 nM
Structure (SMILES): CC(C)C(=O)N(CC1CCCO1)c1ncc(C(O)(C(F)(F)F)C(F)(F)F)s1 (stereo unspecified)
